Among the test systems are 786-0; A549; COLO 205; HCT-116; Hs-578T; IGROV-1; KM12; MDA-MB-231; MDA-MB-435; NCI/ADR-RES; OVCAR-4; OVCAR-5; PC-3; RPMI-8226; RXF 393; SK-MEL-28; SK-MEL-5; SNB-75; TK-10; UACC-62.
Assay in all cases: inhibition of tumour cell growth, NCI panel, 48 h

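Step 1: Grow cells in 96-well plates. Step 2: Expose to compound for 48 hours at 5 concentrations. Step 3: Interpolate endpoints linearly; if unreached, use highest concentration. Abbreviation: GI50, concentration required for 50% inhibition of growth.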 Activity calls are given as the source filed them. Rule as the data show it: active = GI50 up to about 1.1 µM and inactive = higher.

With `COc1ccc(OC)c2sc(N3C(=O)/C(=C/c4cccc(Oc5ccccc5)c4)N=C3c3ccccc3)nc12`, the GI50 with 786-0 was > 100 µM (inactive); in the test with A549 it was > 100 µM (inactive); in the test with COLO 205 it was 51.8 µM (inactive); in the test on HCT-116, 85.1 µM (inactive); in the test with Hs-578T, > 100 µM (inactive); in the test on IGROV-1 it was > 100 µM (inactive). Also, the GI50 with KM12 is 70 µM (inactive); with MDA-MB-231, > 100 µM (inactive); with MDA-MB-435, 29.3 µM (inactive); in the test on NCI/ADR-RES, > 100 µM (inactive); with OVCAR-4 it was > 100 µM (inactive); in the test on OVCAR-5, > 100 µM (inactive). For the same compound, the GI50 in the test on PC-3 was > 100 µM (inactive); with RPMI-8226, 38.8 µM (inactive); in the test with RXF 393, > 100 µM (inactive); in the test with SK-MEL-28, > 100 µM (inactive); in the test on SK-MEL-5, 47.5 µM (inactive); with SNB-75 it was > 100 µM (inactive). The GI50 with TK-10 and with UACC-62 was > 100 µM (inactive) throughout.

For `CCOC(=O)C1C2C1C1C(C(=O)OCC)C21` (stereo not given), the GI50 with 786-0, with A549, with COLO 205, in the test with HCT-116, in the test with Hs-578T and in the test on IGROV-1 was > 100 µM (inactive) each time. Moreover, the GI50 in the test on KM12, in the test on MDA-MB-231, in the test with MDA-MB-435, with NCI/ADR-RES, in the test with OVCAR-4 and in the test on OVCAR-5 was > 100 µM (inactive) each time. Moreover, the GI50 in the test on PC-3 was > 100 µM (inactive); in the test with RPMI-8226 it was 50.4 µM (inactive); in the test with RXF 393, 81.8 µM (inactive); in the test on SK-MEL-28, > 100 µM (inactive); in the test with SK-MEL-5, > 100 µM (inactive); with SNB-75, > 100 µM (inactive). The GI50 in the test on TK-10 and in the test on UACC-62 was > 100 µM (inactive) in each case.

Turning to `O=[N+]([O-])c1ccc(-c2nn3c(C45CC6CC(CC(C6)C4)C5)nnc3s2)c(Cl)c1`, the GI50 with 786-0, with A549, with COLO 205, with HCT-116, in the test with Hs-578T and in the test with IGROV-1 was > 100 µM (inactive) in each case. Also, the GI50 with KM12, with MDA-MB-231, in the test on MDA-MB-435, with NCI/ADR-RES, in the test with OVCAR-4 and in the test with OVCAR-5 was > 100 µM (inactive) in each case. Also, the GI50 with PC-3, in the test with RPMI-8226, in the test on RXF 393, in the test on SK-MEL-28, in the test with SK-MEL-5 and in the test with SNB-75 was > 100 µM (inactive) in each case. The GI50 with TK-10 and with UACC-62 was > 100 µM (inactive) each time.

Turning to `N#Cc1[nH]c(=O)n(-c2ccccc2)c1N`, the GI50 in the test on 786-0, in the test with A549, in the test on COLO 205, in the test with HCT-116, in the test on Hs-578T and with IGROV-1 was > 10 µM (inactive) in each case. Moreover, the GI50 is > 10 µM (inactive) in the test on KM12; > 10 µM (inactive) in the test on MDA-MB-231; > 10 µM (inactive) in the test on MDA-MB-435; > 10 µM (inactive) in the test with NCI/ADR-RES; > 10 µM (inactive) in the test with OVCAR-4; 0.141 µM (active) in the test on OVCAR-5. Moreover, the GI50 is > 10 µM (inactive) with PC-3; > 10 µM (inactive) in the test with RPMI-8226; > 10 µM (inactive) in the test on RXF 393; > 10 µM (inactive) in the test on SK-MEL-28; > 10 µM (inactive) in the test with SK-MEL-5; 6.52 µM (inactive) in the test on SNB-75. Further, the GI50 in the test with TK-10 and in the test with UACC-62 was > 10 µM (inactive) each time.

For `C[C@@H]1CCC2[C@@H](C)[C@@H](OCCO[C@H]3OC4O[C@@]5(C)CCC6[C@H](C)CCC([C@H]3C)[C@@]46OO5)OC3O[C@@]4(C)CCC1[C@]32OO4` (stereo not given in full), the GI50 was 0.361 µM (active) in the test on 786-0; 0.0634 µM (active) in the test on A549; 0.0514 µM (active) with COLO 205; 0.0251 µM (active) with HCT-116; 0.211 µM (active) with Hs-578T; 0.0652 µM (active) with IGROV-1. Besides, the GI50 was 0.056 µM (active) in the test with KM12; 2.21 µM (inactive) in the test on MDA-MB-231; 0.239 µM (active) in the test with MDA-MB-435; 0.241 µM (active) with NCI/ADR-RES; 0.0361 µM (active) in the test with OVCAR-4; 0.0826 µM (active) with OVCAR-5. Further, the GI50 is 0.0174 µM (active) in the test with PC-3; < 0.01 µM (active) in the test on RPMI-8226; 0.94 µM (active) with RXF 393; 2.86 µM (inactive) in the test with SK-MEL-28; 0.301 µM (active) in the test on SK-MEL-5; 0.546 µM (active) in the test with SNB-75. For the same compound, the results for the GI50 with TK-10 and in the test with UACC-62 were 0.206 µM (active) and 0.279 µM (active), respectively.

`COC(=O)CC(c1cn(S(=O)(=O)c2ccc(C)cc2)c2ccccc12)C1C[C@@H](C(=O)OC)N(C(=O)OC(C)(C)C)C1=O` (stereo not given in full): the GI50 in the test with 786-0 is 63.8 µM (inactive); with A549, 27 µM (inactive); with COLO 205, 26.7 µM (inactive); with HCT-116 it was 14.9 µM (inactive); in the test on Hs-578T it was > 100 µM (inactive); in the test with IGROV-1, 16.4 µM (inactive). Further, the GI50 is 71.9 µM (inactive) in the test with KM12; 22.5 µM (inactive) with MDA-MB-231; 41 µM (inactive) in the test with MDA-MB-435; 4.89 µM (inactive) with NCI/ADR-RES; 55.3 µM (inactive) with OVCAR-4; > 100 µM (inactive) in the test on OVCAR-5. The GI50 was 47.6 µM (inactive) with PC-3; 8.77 µM (inactive) in the test with RPMI-8226; 9.79 µM (inactive) in the test with RXF 393; > 100 µM (inactive) with SK-MEL-28; > 100 µM (inactive) with SK-MEL-5; 64.1 µM (inactive) with SNB-75. The results for the GI50 in the test on TK-10 and with UACC-62 were > 100 µM (inactive) and 55.6 µM (inactive), respectively.

Regarding `CCS(=O)(=O)CCn1c(=O)c2c(ncn2C)n(C)c1=O`, the GI50 with 786-0, in the test on A549, with COLO 205, in the test with HCT-116, in the test with Hs-578T and with IGROV-1 was > 100 µM (inactive) throughout. For the same compound, the GI50 with KM12, with MDA-MB-231, with MDA-MB-435, in the test on NCI/ADR-RES, in the test on OVCAR-4 and with OVCAR-5 was > 100 µM (inactive) each time. In addition, the GI50 with PC-3, with RPMI-8226, with RXF 393, in the test on SK-MEL-28, with SK-MEL-5 and with SNB-75 was > 100 µM (inactive) throughout. Moreover, the GI50 in the test on TK-10 and in the test with UACC-62 was > 100 µM (inactive) in each case.

As to `COc1cccc(-c2c(-c3ccccc3)[nH]c(C)c2C(=O)ONC(=O)c2ccccc2)c1`, the GI50 in the test on 786-0 was 4.44 µM (inactive); with A549 it was 2.29 µM (inactive); in the test with COLO 205, 13.7 µM (inactive); with HCT-116, 3.98 µM (inactive); in the test with Hs-578T it was 4.95 µM (inactive); with IGROV-1, 1.66 µM (inactive). Moreover, the GI50 was 13.7 µM (inactive) in the test with KM12; 9.55 µM (inactive) in the test with MDA-MB-231; 3.34 µM (inactive) in the test with MDA-MB-435; 8.93 µM (inactive) in the test on NCI/ADR-RES; 5.05 µM (inactive) in the test on OVCAR-4; 9.06 µM (inactive) with OVCAR-5. Besides, the GI50 was 11.6 µM (inactive) in the test with PC-3; 6.28 µM (inactive) in the test with RPMI-8226; 4.35 µM (inactive) in the test with RXF 393; 14.7 µM (inactive) in the test on SK-MEL-28; 9.93 µM (inactive) with SK-MEL-5; 5.86 µM (inactive) in the test with SNB-75. In addition, the GI50 is 9.08 µM (inactive) in the test on TK-10 and 13.8 µM (inactive) in the test on UACC-62.

The values are drawn from ChEMBL document CHEMBL1201862, “PubChem BioAssay data set” (2004).
